Data taken from the supplement of paper PMC10307832.

How the values were obtained:
Test in all cases: relative viability (nuclei count vs DMSO), 5 days (fraction); higher = more cells survive
NCI-H1792 = test system: NCI-H1792
Summary of the method: (§1)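 The day after seeding in 1536-well plates, lung cancer cell lines were treated by pin tool with a single drug, or with a fixed anchor-drug dose together with five library-drug doses (not always all listed) in √10 steps. After 5 days, a combined fix-and-stain solution (final 0.05% Triton X-100, 1% formaldehyde, 1 ug/ml Hoechst) was added. Nuclei counted on 4× images gave relative viability as treated counts over vehicle counts, reported as the median of duplicate plates.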

NCI-H1734 = test system: NCI-H1734
Summary of the method: as §1

COR-L23 = test system: COR-L23
Summary of the method: as §1

COR-L 105 = test system: COR-L 105
Summary of the method: as §1

NCI-H358 = test system: NCI-H358
Summary of the method: as §1

NCI-H1793 = test system: NCI-H1793
Summary of the method: as §1

SK-MES-1 = test system: SK-MES-1
Summary of the method: as §1

NCI-H1993 = test system: NCI-H1993
Summary of the method: as §1

NCI-H838 = test system: NCI-H838
Summary of the method: as §1

HOP-62 = test system: HOP-62
Summary of the method: as §1

NCI-H2347 = test system: NCI-H2347
Summary of the method: as §1

NCI-H1755 = test system: NCI-H1755
Summary of the method: as §1

NCI-H1395 = test system: NCI-H1395
Summary of the method: as §1

NCI-H2170 = test system: NCI-H2170
Summary of the method: as §1

UMC-11 = test system: UMC-11
Summary of the method: as §1

NCI-H647 = test system: NCI-H647
Summary of the method: as §1

NCI-H2009 = test system: NCI-H2009
Summary of the method: as §1

HCC-15 = test system: HCC-15
Summary of the method: as §1

NCI-H522 = test system: NCI-H522
Summary of the method: as §1

HARA = test system: HARA
Summary of the method: as §1

NCI-H1355 = test system: NCI-H1355
Summary of the method: as §1

SMILES: O=c1cc(N2CCOCC2)oc2c(-c3cccc4c3sc3ccccc34)cccc12 + Nc1ncn([C@H]2C[C@H](O)[C@@H](CO)O2)c(=O)n1 [Decitabine] (partner 2 µM)
- relative viability (NCI-H1792; first compound 0.01 µM): 0.581
- relative viability (NCI-H1792; first compound 0.03162 µM): 0.531
- relative viability (NCI-H1792; first compound 0.3162 µM): 0.556
- relative viability (NCI-H1792; first compound 1 µM): 0.561
- relative viability (NCI-H1734; first compound 0.01 µM): 0.584
- relative viability (NCI-H1734; first compound 0.03162 µM): 0.508
- relative viability (NCI-H1734; first compound 0.1 µM): 0.536
- relative viability (NCI-H1734; first compound 0.3162 µM): 0.498
- relative viability (NCI-H1734; first compound 1 µM): 0.517
- relative viability (COR-L23; first compound 0.01 µM): 0.515
- relative viability (COR-L23; first compound 0.03162 µM): 0.434
- relative viability (COR-L23; first compound 0.1 µM): 0.475
- relative viability (COR-L23; first compound 0.3162 µM): 0.467
- relative viability (COR-L23; first compound 1 µM): 0.504
- relative viability (COR-L 105; first compound 0.01 µM): 0.622
- relative viability (COR-L 105; first compound 0.03162 µM): 0.7
- relative viability (COR-L 105; first compound 0.1 µM): 0.746
- relative viability (COR-L 105; first compound 0.3162 µM): 0.769
- relative viability (COR-L 105; first compound 1 µM): 0.667
- relative viability (NCI-H358; first compound 0.01 µM): 0.222
- relative viability (NCI-H358; first compound 0.03162 µM): 0.218
- relative viability (NCI-H358; first compound 0.1 µM): 0.218
- relative viability (NCI-H358; first compound 0.3162 µM): 0.21
- relative viability (NCI-H358; first compound 1 µM): 0.193
- relative viability (NCI-H1793; first compound 0.01 µM): 0.503
- relative viability (NCI-H1793; first compound 0.03162 µM): 0.502
- relative viability (NCI-H1793; first compound 0.1 µM): 0.564
- relative viability (NCI-H1793; first compound 0.3162 µM): 0.54
- relative viability (NCI-H1793; first compound 1 µM): 0.443
- relative viability (SK-MES-1; first compound 0.01 µM): 0.419
- relative viability (SK-MES-1; first compound 0.03162 µM): 0.43
- relative viability (SK-MES-1; first compound 0.1 µM): 0.366
- relative viability (SK-MES-1; first compound 0.3162 µM): 0.351
- relative viability (SK-MES-1; first compound 1 µM): 0.365
- relative viability (NCI-H1993; first compound 0.01 µM): 0.731
- relative viability (NCI-H1993; first compound 0.03162 µM): 0.639
- relative viability (NCI-H1993; first compound 0.1 µM): 0.569
- relative viability (NCI-H1993; first compound 0.3162 µM): 0.575
- relative viability (NCI-H1993; first compound 1 µM): 0.585
- relative viability (NCI-H838; first compound 0.01 µM): 0.481
- relative viability (NCI-H838; first compound 0.03162 µM): 0.49
- relative viability (NCI-H838; first compound 0.1 µM): 0.479
- relative viability (NCI-H838; first compound 0.3162 µM): 0.482
- relative viability (NCI-H838; first compound 1 µM): 0.478
- relative viability (HOP-62; first compound 0.01 µM): 0.228
- relative viability (HOP-62; first compound 0.03162 µM): 0.227
- relative viability (HOP-62; first compound 0.1 µM): 0.236
- relative viability (HOP-62; first compound 0.3162 µM): 0.249
- relative viability (HOP-62; first compound 1 µM): 0.196
- relative viability (NCI-H2347; first compound 0.01 µM): 0.606
- relative viability (NCI-H2347; first compound 0.03162 µM): 0.632
- relative viability (NCI-H2347; first compound 0.1 µM): 0.609
- relative viability (NCI-H2347; first compound 0.3162 µM): 0.641
- relative viability (NCI-H2347; first compound 1 µM): 0.603
- relative viability (NCI-H1755; first compound 0.01 µM): 0.755
- relative viability (NCI-H1755; first compound 0.03162 µM): 0.74
- relative viability (NCI-H1755; first compound 0.1 µM): 0.711
- relative viability (NCI-H1755; first compound 0.3162 µM): 0.696
- relative viability (NCI-H1755; first compound 1 µM): 0.719
- relative viability (NCI-H1395; first compound 0.03162 µM): 0.772
- relative viability (NCI-H1395; first compound 0.1 µM): 0.656
- relative viability (NCI-H1395; first compound 0.3162 µM): 0.701
- relative viability (NCI-H1395; first compound 1 µM): 0.692
- relative viability (NCI-H2170; first compound 0.01 µM): 0.472
- relative viability (NCI-H2170; first compound 0.03162 µM): 0.447
- relative viability (NCI-H2170; first compound 0.1 µM): 0.475
- relative viability (NCI-H2170; first compound 0.3162 µM): 0.457
- relative viability (NCI-H2170; first compound 1 µM): 0.461
- relative viability (UMC-11; first compound 0.01 µM): 0.587
- relative viability (UMC-11; first compound 0.03162 µM): 0.562
- relative viability (UMC-11; first compound 0.1 µM): 0.492
- relative viability (UMC-11; first compound 0.3162 µM): 0.556
- relative viability (UMC-11; first compound 1 µM): 0.687
- relative viability (NCI-H647; first compound 0.01 µM): 0.318
- relative viability (NCI-H647; first compound 0.03162 µM): 0.356
- relative viability (NCI-H647; first compound 0.1 µM): 0.382
- relative viability (NCI-H647; first compound 0.3162 µM): 0.419
- relative viability (NCI-H647; first compound 1 µM): 0.371
- relative viability (NCI-H2009; first compound 0.01 µM): 0.368
- relative viability (NCI-H2009; first compound 0.03162 µM): 0.412
- relative viability (NCI-H2009; first compound 0.1 µM): 0.332
- relative viability (NCI-H2009; first compound 0.3162 µM): 0.368
- relative viability (NCI-H2009; first compound 1 µM): 0.399
- relative viability (HCC-15; first compound 0.01 µM): 0.632
- relative viability (HCC-15; first compound 0.03162 µM): 0.639
- relative viability (HCC-15; first compound 0.1 µM): 0.774
- relative viability (HCC-15; first compound 0.3162 µM): 0.59
- relative viability (HCC-15; first compound 1 µM): 0.724
- relative viability (NCI-H522; first compound 0.01 µM): 0.709
- relative viability (NCI-H522; first compound 0.03162 µM): 0.662
- relative viability (NCI-H522; first compound 0.1 µM): 0.669
- relative viability (NCI-H522; first compound 0.3162 µM): 0.649
- relative viability (NCI-H522; first compound 1 µM): 0.696
- relative viability (HARA; first compound 0.01 µM): 0.536
- relative viability (HARA; first compound 0.03162 µM): 0.466
- relative viability (HARA; first compound 0.1 µM): 0.617
- relative viability (HARA; first compound 0.3162 µM): 0.481
- relative viability (HARA; first compound 1 µM): 0.476
- relative viability (NCI-H1355; first compound 0.01 µM): 0.377
- relative viability (NCI-H1355; first compound 0.03162 µM): 0.339
- relative viability (NCI-H1355; first compound 0.1 µM): 0.409
- relative viability (NCI-H1355; first compound 0.3162 µM): 0.351
- relative viability (NCI-H1355; first compound 1 µM): 0.352
